The target of experiment [1] is T1, serotonin-2 (HT-2) receptor (Rattus norvegicus, UniProt P14842).
T1 construct: membrane preparations of frontal/parietal cortex from male Sprague-Dawley rats; from tissue; host or cells: rat frontal/parietal cortex membranes (male Sprague-Dawley)
Briefly: serotonin-2 (HT-2) receptor binding, inhibition of specific binding of ^3 H-ketanserin in frontal/parietal cortex membranes. The following applies: specific binding of ^3 H-ketanserin (0.4 nM). On the set-up: species or system male Sprague-Dawley rats. How it is done:
The serotonin-2 (HT-2) receptor binding properties, indicative of the serotonin-2 antagonist activity of the compounds of the invention, are determined in vitro by determining their ability to inhibit the specific binding of ^3 H-ketanserin, essentially as described by Battaglia et al in Life Sciences 33, 2011 (1983), in membrane preparations of frontal/parietal cortex from male Sprague-Dawley rats (200-225 g). IC50 values, representing the concentration of compound required to displace 50% of specific binding of 0.4 nM of ^3 H-ketanserin, are determined by log-logit analysis of the specific binding data. Selectivity for the HT-2 receptors can be determined by also measuring specific binding to serotonin-1 (HT-1) receptors, e.g. according to Middlemiss, D. N. and Fozard, J. R. in Eur. J. Pharmacol. 90, 151 (1980).

In another experiment the target is T2, serotonin-2 receptor (Rattus norvegicus, UniProt P14842).
T2 construct: Male Wistar rats (120-180 g) are fasted for 18 hr prior to testing; from tissue; host or cells: whole living animal (male Wistar rat), endogenous receptor of the central nervous system
In words: head twitch test, inhibition of the head twitch induced by 5-hydroxytryptophane in the rat. The experiment is classed as in vivo, Male Wistar rats. On the procedure: The serotonin-2 antagonism or blockade is determined in vivo by measuring the inhibition of the head twitch induced by 5-hydroxytryptophane (the metabolic precursor of serotonin) in the rat. The head twitch test for assessing central nervous system serotonin-2 receptor antagonism in the rat is described in Neuropharmacology 16, 663 (1977) and in J. Pharmacol. Exp. Ther. 228, 133 (1984). The test is carried out as follows:
Male Wistar rats (120-180 g) are fasted for 18 hr prior to testing but allowed water ad libitum. All animals are pretreated with the peripheral decarboxylase inbihitor alpha-methyl-DOPA hydrazine (carbidopa 25 mg/kg i.p., 4.0 ml/kg) followed 30 min later by 5-hydroxytryptophan (5HTP 100 mg/kg s.c., 4.0 ml/kg). Ninety minutes after receiving 5HTP, the rats are placed individually in plexiglas observation cages and the frequency of head twitches for each animal is counted over a 10 min observation period. The test compound or vehicle is administered at either 0.5 hr at 1.0 ml/kg i.p. or at 1, 2 or 4 hr at 10 ml/kg p.o. prior to the observation period. ED50 values are determined by probit analysis.

Structures are written as SMILES.

The IC50 is the concentration that gives 50% inhibition. Usually ED50 stands for the midpoint of the dose-response relation. A high value points to a need for a large dose.

T2 sequence (P14842 whole entry): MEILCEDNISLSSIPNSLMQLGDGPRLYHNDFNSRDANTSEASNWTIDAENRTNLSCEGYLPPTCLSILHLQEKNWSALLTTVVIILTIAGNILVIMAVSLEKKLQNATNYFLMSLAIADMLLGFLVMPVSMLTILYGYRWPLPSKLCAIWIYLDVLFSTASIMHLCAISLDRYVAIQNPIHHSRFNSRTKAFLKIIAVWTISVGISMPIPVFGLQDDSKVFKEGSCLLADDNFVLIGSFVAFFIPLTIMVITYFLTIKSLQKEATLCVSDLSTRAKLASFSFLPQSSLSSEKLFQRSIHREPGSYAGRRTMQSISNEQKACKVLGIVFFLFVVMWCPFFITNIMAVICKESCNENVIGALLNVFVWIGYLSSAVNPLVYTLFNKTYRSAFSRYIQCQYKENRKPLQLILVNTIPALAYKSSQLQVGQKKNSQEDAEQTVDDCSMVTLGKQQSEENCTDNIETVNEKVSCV
T1 sequence (P14842 whole entry): as above

In experiment [1], `CCSC[C@H]1CN(C)C[C@H]2c3cc(OC)cc(Br)c3OC[C@H]12` (relative stereo) [Example 4, (±)-[4R*,4aS*,10bR*]-7-Bromo-4-(ethylthiomethyl)-1,3,4,4a,5,10b-hexahydro-9-methoxy-2-methyl-2H-[1]benzopyrano[4,3-c]pyridine] registered an IC50 of 0.022 µM. For the same compound, the median effective dose (ED50) at serotonin-2 receptor (0.5 h, ip (at 30 minutes)) is 1.1 mg/kg; at serotonin-2 receptor (po (at 1 hour)), 0.71 mg/kg.

These data come from US4666916A, “Hexahydro-(1)-benzo-(pyrano and thiopyrano) (4,3-C)pyridines, useful as serotin-2 blocking agents” (Ciba-Geigy Corporation, priority 1985, dated 1987).
